Test results published in ChEMBL document CHEMBL1136178, “Carbonic anhydrase inhibitors: topically acting antiglaucoma sulfonamides incorporating esters and amides of 3- and 4-carboxybenzolamide” (Bioorg Med Chem Lett, 2003).

What was measured:
Carbonic anhydrase 2 = Carbonic anhydrase 2 (Homo sapiens, UniProt P00918)
Description: Inhibitory activity against human carbonic anhydrase II

Oryctolagus cuniculus [1] = species: Oryctolagus cuniculus
Description: Fall of intraocular pressure (IOP) after treatment with 50 ug into normotensive rabbit at time interval 30 min at a pH of 7

Carbonic anhydrase 1 = Carbonic anhydrase 1 (Homo sapiens, UniProt P00915)
Description: Inhibitory activity against human carbonic anhydrase I (hCA I)

Oryctolagus cuniculus [2] = species: Oryctolagus cuniculus; remark: listed apart in the source
Description: Fall of intraocular pressure (IOP) after treatment with 50 ug into normotensive rabbit at time interval 90 min at a pH of 7

Carbonic anhydrase 4 = target: T1, Carbonic anhydrase 4 (Bos taurus, UniProt Q95323)
T1 sequence (Q95323 whole entry): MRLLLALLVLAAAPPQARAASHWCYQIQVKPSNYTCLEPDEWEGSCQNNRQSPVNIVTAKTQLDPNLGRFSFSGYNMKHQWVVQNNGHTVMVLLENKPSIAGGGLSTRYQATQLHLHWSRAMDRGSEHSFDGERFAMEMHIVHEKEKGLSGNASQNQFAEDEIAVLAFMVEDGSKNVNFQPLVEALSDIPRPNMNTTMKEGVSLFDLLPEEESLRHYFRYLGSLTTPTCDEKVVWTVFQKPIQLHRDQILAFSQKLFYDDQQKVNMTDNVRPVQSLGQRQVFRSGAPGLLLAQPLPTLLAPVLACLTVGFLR
Description: Inhibitory activity against Carbonic anhydrase IV isolated from bovine lung

Oryctolagus cuniculus [3] = species: Oryctolagus cuniculus; remark: listed apart in the source
Description: Fall of intraocular pressure (IOP) after treatment with 50 ug into normotensive rabbit at time interval 240 min at a pH of 7

Oryctolagus cuniculus [4] = species: Oryctolagus cuniculus; remark: listed apart in the source
Description: Fall of intraocular pressure (IOP) after treatment with 50 ug into normotensive rabbit at time interval 60 min at a pH of 7

Sequence of Carbonic anhydrase 1 (P00915 whole entry): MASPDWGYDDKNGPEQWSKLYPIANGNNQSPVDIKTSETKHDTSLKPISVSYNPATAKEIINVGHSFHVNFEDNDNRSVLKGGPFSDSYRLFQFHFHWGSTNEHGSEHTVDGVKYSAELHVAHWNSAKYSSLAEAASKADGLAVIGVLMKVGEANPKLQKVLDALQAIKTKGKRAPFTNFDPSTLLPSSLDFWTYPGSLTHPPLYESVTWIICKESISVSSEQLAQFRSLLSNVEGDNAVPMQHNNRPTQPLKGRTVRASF

| Structure (SMILES) | Ki (Carbonic anhydrase 2) | Delta IOP (Oryctolagus cuniculus [1]) | Ki (Carbonic anhydrase 1) | Delta IOP (Oryctolagus cuniculus [2]) | Ki (Carbonic anhydrase 4) | Delta IOP (Oryctolagus cuniculus [3]) | Delta IOP (Oryctolagus cuniculus [4]) |
| --- | --- | --- | --- | --- | --- | --- | --- |
| CN(C)CCOC(=O)c1cccc(S(=O)(=O)Nc2nnc(S(N)(=O)=O)s2)c1 | 2.1 nM | 4.5 mmHg | 15 nM | 7.1 mmHg | 7 nM | 5.7 mmHg | 4.9 mmHg |
| CCN(CC)CCNC(=O)c1cccc(S(=O)(=O)Nc2nnc(S(N)(=O)=O)s2)c1 | 1.7 nM | 6.5 mmHg | 14 nM | 9.1 mmHg | 7 nM | 8 mmHg | 6.9 mmHg |
| CC(CN(C)C)OC(=O)c1cccc(S(=O)(=O)Nc2nnc(S(N)(=O)=O)s2)c1 (stereo unspecified) | 2 nM | 2.5 mmHg | 17 nM | 8.5 mmHg | 8 nM | 7.9 mmHg | 6.7 mmHg |
| CCN(CC)CCNC(=O)c1cccc(S(=O)(=O)/N=c2/sc(S(N)(=O)=O)nn2C)c1 | 1.9 nM |  | 16 nM |  | 7 nM |  |  |
| CN(C)CCOCCOC(=O)c1cccc(S(=O)(=O)/N=c2/sc(S(N)(=O)=O)nn2C)c1 | 2 nM |  | 15 nM |  | 8 nM |  |  |
| CN(C)CCOC(=O)c1cccc(S(=O)(=O)/N=c2/sc(S(N)(=O)=O)nn2C)c1 | 2.9 nM |  | 16 nM |  | 10 nM |  |  |
| Cn1nc(S(N)(=O)=O)s/c1=N/S(=O)(=O)c1ccc(C(=O)OCCO)cc1 | 4 nM |  | 20 nM |  | 14 nM |  |  |
| COCCOC(=O)c1cccc(S(=O)(=O)Nc2nnc(S(N)(=O)=O)s2)c1 | 2.9 nM | 6 mmHg | 15 nM | 2 mmHg | 8 nM | 0 mmHg | 2.5 mmHg |
| NS(=O)(=O)c1nnc(NS(=O)(=O)c2cccc(C(=O)OCCO)c2)s1 | 3.1 nM | 10.5 mmHg | 16 nM | 2.8 mmHg | 8 nM | 0.5 mmHg | 4.8 mmHg |
| CN(C)CCOC(=O)c1ccc(S(=O)(=O)/N=c2/sc(S(N)(=O)=O)nn2C)cc1 | 2.4 nM |  | 13 nM |  | 14 nM |  |  |
| NS(=O)(=O)c1nnc(NS(=O)(=O)c2ccc(C(=O)O)cc2)s1 | 4.6 nM |  | 45 nM |  | 12 nM |  |  |
| CN(C)CCOCCOC(=O)c1ccc(S(=O)(=O)Nc2nnc(S(N)(=O)=O)s2)cc1 | 1.3 nM | 2.7 mmHg | 12 nM | 5.7 mmHg | 7 nM | 6.3 mmHg | 3.9 mmHg |
| Cn1nc(S(N)(=O)=O)s/c1=N/S(=O)(=O)c1cccc(C(=O)OCCO)c1 | 5.2 nM |  | 23 nM |  | 10 nM |  |  |
| CC(CN(C)C)OC(=O)c1ccc(S(=O)(=O)/N=c2/sc(S(N)(=O)=O)nn2C)cc1 (stereo unspecified) | 1.8 nM |  | 15 nM |  | 13 nM |  |  |
| COCCOC(=O)c1cccc(S(=O)(=O)/N=c2/sc(S(N)(=O)=O)nn2C)c1 | 3.3 nM |  | 17 nM |  | 9 nM |  |  |
| CN(C)CCOCCOC(=O)c1ccc(S(=O)(=O)/N=c2/sc(S(N)(=O)=O)nn2C)cc1 | 1.7 nM |  | 13 nM |  | 9 nM |  |  |
| Cn1nc(S(N)(=O)=O)s/c1=N/S(=O)(=O)c1cccc(C(=O)O)c1 | 5.9 nM |  | 73 nM |  | 15 nM |  |  |
| CC(CN(C)C)OC(=O)c1cccc(S(=O)(=O)/N=c2/sc(S(N)(=O)=O)nn2C)c1 (stereo unspecified) | 2.2 nM |  | 18 nM |  | 12 nM |  |  |
| COCCOC(=O)c1ccc(S(=O)(=O)/N=c2/sc(S(N)(=O)=O)nn2C)cc1 | 3.1 nM |  | 16 nM |  | 12 nM |  |  |
| NS(=O)(=O)c1nnc(NS(=O)(=O)c2cccc(C(=O)O)c2)s1 | 5.1 nM |  | 68 nM |  | 13 nM |  |  |
| CC(CN(C)C)OC(=O)c1ccc(S(=O)(=O)Nc2nnc(S(N)(=O)=O)s2)cc1 (stereo unspecified) | 1.4 nM | 4.8 mmHg | 13 nM | 8.2 mmHg | 10 nM | 8 mmHg | 5.9 mmHg |
| CN(C)CCOC(=O)c1ccc(S(=O)(=O)Nc2nnc(S(N)(=O)=O)s2)cc1 | 1.5 nM | 4.5 mmHg | 11 nM | 8 mmHg | 10 nM | 7.6 mmHg | 5.5 mmHg |
| Cn1nc(S(N)(=O)=O)s/c1=N/S(=O)(=O)c1ccc(C(=O)O)cc1 | 5.4 nM |  | 50 nM |  | 14 nM |  |  |
| NS(=O)(=O)c1nnc(NS(=O)(=O)c2ccc(C(=O)OCCO)cc2)s1 | 2.9 nM |  | 14 nM |  | 11 nM |  |  |
| CN(C)CCOCCOC(=O)c1cccc(S(=O)(=O)Nc2nnc(S(N)(=O)=O)s2)c1 | 1.6 nM | 4.9 mmHg | 13 nM | 4.1 mmHg | 6 nM | 3.3 mmHg | 4.5 mmHg |
| CCN(CC)CCNC(=O)c1ccc(S(=O)(=O)/N=c2/sc(S(N)(=O)=O)nn2C)cc1 | 1.7 nM |  | 12 nM |  | 8 nM |  |  |
| COCCOC(=O)c1ccc(S(=O)(=O)Nc2nnc(S(N)(=O)=O)s2)cc1 | 2.8 nM |  | 12 nM |  | 10 nM |  |  |
| NS(=O)(=O)c1nnc(NS(=O)(=O)c2ccccc2)s1 [BENZOLAMIDE] |  |  |  |  | 12 nM |  |  |
| CC(=O)/N=c1/sc(S(N)(=O)=O)nn1C [METHAZOLAMIDE] |  |  |  |  | 145 nM |  |  |
